From publication PMC3079579, “Solution Structure of a Repeated Unit of the ABA-1 Nematode Polyprotein Allergen of Ascaris Reveals a Novel Fold and Two Discrete Lipid-Binding Sites” (PLoS Neglected Tropical Diseases, 2011)
pKd: −log10 of the molar value.

Key:
[1] = target: T1, ABA-1A (rABA-1A, RP-ABA-1A; As-NPA-1A) (Ascaris suum, UniProt Q06811); assay: fluorescence titration (probe enhancement, […] nm); format: binding
[2] = target: T1, ABA-1A (rABA-1A, RP-ABA-1A; As-NPA-1A); assay: fluorescence blue-shift of probe; format: binding; settings: PBS pH 7.3, 25 °C, data not shown

T1 sequence (Q06811 534-662): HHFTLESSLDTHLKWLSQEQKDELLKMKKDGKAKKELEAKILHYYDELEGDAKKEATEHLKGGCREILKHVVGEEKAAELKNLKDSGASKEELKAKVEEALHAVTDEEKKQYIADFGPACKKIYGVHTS

Row | SMILES | pKd [1] | fluorescence blue-shift of probe [2]
1 | CN(C)c1cccc2c(S(=O)(=O)NCCCCCCCCCCC(=O)O)cccc12 [DAUDA, 11-(((5-(dimethylamino)-1-napthalenyl)sulfonyl)amino)undecanoic acid] | 6.96 | 
2 | CCCCCCC(NS(=O)(=O)c1cccc2c(N(C)C)cccc12)C(=O)O (racemic) [DACA, dansyl-α-aminooctanoic acid] |  | A similar blue-shift (data not shown) was observed using dansyl-DL-α-caprylic acid (DACA)
